ChEMBL document CHEMBL1135028, “Enantio-dependent binding and transactivation of optically active phenylpropanoic acid derivatives at human peroxisome proliferator-activated receptor alpha” (Bioorg Med Chem Lett, 2002)

Assays:
[1] = molecular target: T1, Peroxisome proliferator-activated receptor alpha (Homo sapiens, UniProt Q07869); assay: Binding affinity of compound to human peroxisome proliferator-activated receptor alpha was determined by competitive binding assay
T1 sequence (Q07869 whole entry): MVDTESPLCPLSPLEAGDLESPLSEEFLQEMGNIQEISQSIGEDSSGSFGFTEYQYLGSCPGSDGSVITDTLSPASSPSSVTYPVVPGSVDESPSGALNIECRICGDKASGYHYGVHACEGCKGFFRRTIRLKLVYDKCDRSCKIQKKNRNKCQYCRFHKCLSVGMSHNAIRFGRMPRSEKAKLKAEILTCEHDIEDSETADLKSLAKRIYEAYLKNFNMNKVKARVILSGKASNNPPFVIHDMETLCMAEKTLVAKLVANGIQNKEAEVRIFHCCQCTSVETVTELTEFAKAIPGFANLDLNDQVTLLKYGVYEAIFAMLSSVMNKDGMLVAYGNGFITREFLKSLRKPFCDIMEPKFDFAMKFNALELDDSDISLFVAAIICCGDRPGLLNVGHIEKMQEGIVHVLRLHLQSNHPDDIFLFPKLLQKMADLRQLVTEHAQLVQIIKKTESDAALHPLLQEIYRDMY

[2] = molecular target: T1, Peroxisome proliferator-activated receptor alpha; assay: Compound was tested for half maximum transactivation activity of human peroxisome proliferator-activated receptor alpha; format: functional

Structure (SMILES) | EC50 [1] | EC50 [2]
CC[C@@H](Cc1ccc(OC)c(C(=O)NCc2ccc(C(F)(F)F)cc2)c1)C(=O)O | 0.74 µM | 
CC[C@H](Cc1ccc(OC)c(C(=O)NCc2ccc(C(F)(F)F)cc2)c1)C(=O)O | 24 µM | 1.5 µM
